Source: ChEMBL document CHEMBL1201862, “PubChem BioAssay data set” (2004)
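Following 48 hours of exposure in 96-well plates, responses at five concentrations were used to interpolate endpoints linearly. GI50 marks 50% less growth.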 The source made the active and inactive calls. Rule as the data show it: active = GI50 up to about 1.1 µM and inactive = higher.

Legend:
Test in all cases: DTP human tumour cell line panel, 48 h
[1] = tested on: K562
[2] = tested on: OVCAR-5
[3] = tested on: CAKI-1
[4] = tested on: SK-MEL-5
[5] = tested on: CCRF-CEM
[6] = tested on: MDA-MB-435
[7] = tested on: NCI/ADR-RES
[8] = tested on: SF-268
[9] = tested on: MOLT-4
[10] = tested on: Malme-3M
[11] = tested on: SF-539
[12] = tested on: KM12
[13] = tested on: NCI-H460
[14] = tested on: OVCAR-8
[15] = tested on: NCI-H522
[16] = tested on: SK-MEL-28
[17] = tested on: SK-MEL-2
[18] = tested on: ACHN
[19] = tested on: RPMI-8226
[20] = tested on: UACC-62
[21] = tested on: MDA-MB-231
[22] = tested on: SF-295
[23] = tested on: A498
[24] = tested on: A549
[25] = tested on: M14
[26] = tested on: NCI-H226
[27] = tested on: HCT-15
[28] = tested on: MDA-N
[29] = tested on: DU-145
[30] = tested on: SN12C
[31] = tested on: IGROV-1
[32] = tested on: U-251
[33] = tested on: UO-31
[34] = tested on: UACC-257
[35] = tested on: RXF 393
[36] = tested on: COLO 205
[37] = tested on: OVCAR-4
[38] = tested on: MCF7
[39] = tested on: HCC 2998
[40] = tested on: SW-620
[41] = tested on: PC-3
[42] = tested on: HL-60
[43] = tested on: T47D
[44] = tested on: SR
[45] = tested on: HOP-92
[46] = tested on: TK-10
[47] = tested on: SNB-75
[48] = tested on: EKVX
[49] = tested on: SNB-19
[50] = tested on: Hs-578T
[51] = tested on: BT-549
[52] = tested on: OVCAR-3
[53] = tested on: SK-OV-3
[54] = tested on: NCI-H23
[55] = tested on: LOX IMVI
[56] = tested on: HCT-116
[57] = tested on: HT-29
[58] = tested on: 786-0
[59] = tested on: HOP-62

With C=C(C)[C@@H]1CCC2=C[C@H](CC(C)=CC3=CC(C)=C(O3)[C@@H]1OC)OC2=O the GI50 [1] was > 100 µM (inactive), the GI50 [2] was > 100 µM (inactive) and the GI50 [3] was > 100 µM (inactive). For the same compound, the GI50 [4] was > 100 µM (inactive), the GI50 [5] was > 100 µM (inactive) and the GI50 [6] was > 100 µM (inactive). The GI50 [7] was 90.4 µM (inactive), the GI50 [8] was 33.7 µM (inactive) and the GI50 [9] was > 100 µM (inactive). The GI50 [10] was > 100 µM (inactive), the GI50 [11] was 77.3 µM (inactive) and the GI50 [12] was > 100 µM (inactive). The GI50 [13] was > 100 µM (inactive), the GI50 [14] was 40.7 µM (inactive) and the GI50 [15] was > 100 µM (inactive). For the same compound, the GI50 [16] was > 100 µM (inactive), the GI50 [17] was 20.9 µM (inactive) and the GI50 [18] was 76.6 µM (inactive). The GI50 [19] was > 100 µM (inactive), the GI50 [20] was 29.7 µM (inactive) and the GI50 [21] was 29.5 µM (inactive). For the same compound, the GI50 [22] was 21 µM (inactive), the GI50 [23] was 53.6 µM (inactive) and the GI50 [24] was > 100 µM (inactive). For the same compound, the GI50 [25] was 41.5 µM (inactive), the GI50 [26] was 73.8 µM (inactive) and the GI50 [27] was > 100 µM. For the same compound, the GI50 [28] was > 100 µM (inactive), the GI50 [29] was > 100 µM (inactive) and the GI50 [30] was > 100 µM (inactive). The GI50 [31] was > 100 µM (inactive), the GI50 [32] was 33.1 µM (inactive) and the GI50 [33] was > 100 µM (inactive). The GI50 [34] was > 100 µM (inactive), the GI50 [35] was 23.8 µM (inactive) and the GI50 [36] was > 100 µM (inactive). For the same compound, the GI50 [37] was > 100 µM (inactive), the GI50 [38] was 38.8 µM (inactive) and the GI50 [39] was > 100 µM (inactive). For the same compound, the GI50 [40] was > 100 µM (inactive), the GI50 [41] was 83.8 µM (inactive) and the GI50 [42] was > 100 µM (inactive). For the same compound, the GI50 [43] was > 100 µM (inactive), the GI50 [44] was > 100 µM (inactive) and the GI50 [45] was 33.3 µM (inactive). The GI50 [46] was 85.3 µM (inactive), the GI50 [47] was 63.5 µM (inactive) and the GI50 [48] was 59.2 µM (inactive). The GI50 [49] was 37.2 µM (inactive), the GI50 [50] was 33.6 µM (inactive) and the GI50 [51] was 51.6 µM (inactive). For the same compound, the GI50 [52] was > 100 µM (inactive).

COC(=O)c1c(O)ccc2c1c1c(n2Cc2ccccc2OC)C(=O)c2ccccc2C1=O was tested, and the GI50 [53] was 16.3 µM (inactive), the GI50 [1] was 1.67 µM (inactive) and the GI50 [2] was 21.1 µM (inactive). The GI50 [3] was 15.8 µM (inactive), the GI50 [4] was 13.1 µM (inactive) and the GI50 [5] was 3.13 µM (inactive). The GI50 [6] was 10.3 µM (inactive), the GI50 [7] was 6.95 µM (inactive) and the GI50 [8] was 11.6 µM (inactive). For the same compound, the GI50 [9] was 0.0393 µM (active), the GI50 [10] was 21 µM (inactive) and the GI50 [11] was 19.3 µM (inactive). The GI50 [12] was 9.75 µM (inactive), the GI50 [13] was 3.78 µM (inactive) and the GI50 [14] was 4.42 µM (inactive). For the same compound, the GI50 [15] was 11 µM (inactive), the GI50 [16] was 15.8 µM (inactive) and the GI50 [17] was 13.9 µM (inactive). The GI50 [18] was 7.53 µM (inactive), the GI50 [19] was 1.86 µM (inactive) and the GI50 [21] was 13.5 µM (inactive). For the same compound, the GI50 [22] was 18.1 µM (inactive), the GI50 [23] was 40 µM (inactive) and the GI50 [24] was 5.64 µM (inactive). For the same compound, the GI50 [25] was 8.45 µM (inactive), the GI50 [54] was 14.1 µM (inactive) and the GI50 [26] was 15.3 µM (inactive). For the same compound, the GI50 [55] was 10.6 µM (inactive), the GI50 [27] was 5.16 µM and the GI50 [28] was 13.3 µM (inactive). For the same compound, the GI50 [29] was 13.3 µM (inactive), the GI50 [56] was 5.46 µM (inactive) and the GI50 [30] was 10 µM (inactive). For the same compound, the GI50 [31] was 12.6 µM (inactive), the GI50 [32] was 11 µM (inactive) and the GI50 [33] was 5.42 µM (inactive). For the same compound, the GI50 [34] was 22.9 µM (inactive), the GI50 [35] was 13.1 µM (inactive) and the GI50 [36] was 1.83 µM (inactive). The GI50 [37] was 11.7 µM (inactive), the GI50 [38] was 6.34 µM (inactive) and the GI50 [57] was 8.18 µM (inactive). For the same compound, the GI50 [39] was 6.27 µM (inactive), the GI50 [40] was 14.2 µM (inactive) and the GI50 [41] was 10.4 µM (inactive). For the same compound, the GI50 [42] was 2.04 µM (inactive), the GI50 [43] was 2.36 µM (inactive) and the GI50 [44] was 0.0483 µM (active). For the same compound, the GI50 [45] was 3.78 µM (inactive), the GI50 [46] was 23.2 µM (inactive) and the GI50 [58] was 11.4 µM (inactive). For the same compound, the GI50 [48] was 24.5 µM (inactive), the GI50 [49] was 27.2 µM (inactive) and the GI50 [50] was 18 µM (inactive). The GI50 [51] was 13.3 µM (inactive), the GI50 [59] was 13.6 µM (inactive) and the GI50 [52] was 10 µM (inactive).

With COc1cc2c(cc1OC)C(=O)N(c1ccc(OCCN3CCCC3)cc1)C2 the GI50 [53] was > 100 µM (inactive), the GI50 [1] was > 100 µM (inactive) and the GI50 [2] was > 100 µM (inactive). For the same compound, the GI50 [3] was > 100 µM (inactive), the GI50 [4] was > 100 µM (inactive) and the GI50 [5] was > 100 µM (inactive). The GI50 [6] was > 100 µM (inactive), the GI50 [7] was > 100 µM (inactive) and the GI50 [8] was > 100 µM (inactive). For the same compound, the GI50 [9] was > 100 µM (inactive), the GI50 [10] was > 100 µM (inactive) and the GI50 [11] was > 100 µM (inactive). For the same compound, the GI50 [12] was > 100 µM (inactive), the GI50 [13] was > 100 µM (inactive) and the GI50 [14] was > 100 µM (inactive). For the same compound, the GI50 [15] was > 100 µM (inactive), the GI50 [16] was > 100 µM (inactive) and the GI50 [17] was > 100 µM (inactive). For the same compound, the GI50 [18] was > 100 µM (inactive), the GI50 [19] was > 100 µM (inactive) and the GI50 [20] was > 100 µM (inactive). The GI50 [21] was > 100 µM (inactive), the GI50 [22] was > 100 µM (inactive) and the GI50 [23] was > 100 µM (inactive). The GI50 [24] was > 100 µM (inactive), the GI50 [25] was > 100 µM (inactive) and the GI50 [54] was > 100 µM (inactive). For the same compound, the GI50 [26] was > 100 µM (inactive), the GI50 [55] was > 100 µM (inactive) and the GI50 [27] was > 100 µM. For the same compound, the GI50 [28] was > 100 µM (inactive), the GI50 [29] was > 100 µM (inactive) and the GI50 [56] was > 100 µM (inactive). For the same compound, the GI50 [30] was > 100 µM (inactive), the GI50 [31] was > 100 µM (inactive) and the GI50 [32] was > 100 µM (inactive). The GI50 [34] was > 100 µM (inactive), the GI50 [35] was > 100 µM (inactive) and the GI50 [36] was > 100 µM (inactive). For the same compound, the GI50 [37] was > 100 µM (inactive), the GI50 [38] was > 100 µM (inactive) and the GI50 [57] was > 100 µM (inactive). For the same compound, the GI50 [39] was > 100 µM (inactive), the GI50 [40] was > 100 µM (inactive) and the GI50 [41] was > 100 µM (inactive). The GI50 [42] was > 100 µM (inactive), the GI50 [43] was > 100 µM (inactive) and the GI50 [44] was > 100 µM (inactive). The GI50 [45] was > 100 µM (inactive), the GI50 [46] was > 100 µM (inactive) and the GI50 [58] was > 100 µM (inactive). For the same compound, the GI50 [48] was > 100 µM (inactive), the GI50 [49] was > 100 µM (inactive) and the GI50 [50] was > 100 µM (inactive). For the same compound, the GI50 [51] was > 100 µM (inactive), the GI50 [59] was > 100 µM (inactive) and the GI50 [52] was > 100 µM (inactive).
